Legend:
BACE1 = target: T1, BACE1 (Homo sapiens, UniProt P56817); test: Cellular Aβ-lowering assay (Aβ40 ELISA); type: cell-based; settings: HEK293 cells stably expressing human APP wt (APP695); Aβ40 in supernatant after 18-20 hrs; read-out: BACE1 cell act. Aβ40 IC50
T1 construct: Human HEK293 cells which are stably transfected with a vector expressing a cDNA of the human APP wt gene (APP695); endogenous in cells; host or cells: HEK293 stably transfected with human APP695 wt
Description: Cellular Aβ-Lowering Assay:
Human HEK293 cells which are stably transfected with a vector expressing a cDNA of the human APP wt gene (APP695) were used to assess the potency of the compounds in a cellular assay. The cells were seeded in 96-well microtiter plates in cell culture medium (Iscove, plus 10% (v/v) fetal bovine serum, glutamine, penicillin/streptomycin) to about 80% confluence and the compounds were added at a 10× concentration in 1/10 volume of medium without FCS containing 8% DMSO (final concentration of DMSO was kept at 0.8% v/v). After 18-20 hrs incubation at 37° C. and 5% CO2 in a humidified incubator the culture supernatant was harvested for the determination of Aβ40 concentrations. 96 well ELISA plates (e.g., Nunc MaxiSorb) were coated with monoclonal antibody which specifically recognize the C-terminal end of Aβ40 (Brockhaus et al., NeuroReport 9, 1481-1486; 1998). After blocking of non-specific binding sites with e.g. 1% BSA and washing, the culture supernatants were added in suitable dilutions together with a horseradish peroxidase-coupled Aβ detection antibody (e.g., antibody 4G8, Senetek, Maryland Heights, Mo.) and incubated for 5 to 7 hrs. Subsequently the wells of the microtiter plate were washed extensively with Tris-buffered saline containing 0.05% Tween 20 and the assay was developed with tetramethylbenzidine/H2O2 in citric acid buffer. After stopping the reaction with one volume 1 N H2SO4 the reaction was measured in an ELISA reader at 450 nm wavelength. The concentrations of Aβ in the culture supernatants were calculated from a standard curve obtained with known amounts of pure Aβ peptide.

[1] = Detection of glutathione conjugates; type: in vitro ADME, human; design: key: NF: in vitro no significant adduct formation relative to control; settings: in vitro, relative to control
Description: Detection of Glutathione Conjugates
The assay conditions for the detection of glutathione conjugates follow the procedure described by C. M. Dieckhaus et al.

in vivo effect = settings: % of control @ 30 mg/kg p.o.
[2] = target: T2, recombinant human cathepsin E (Homo sapiens, UniProt P14091); test: Cathepsin E fluorescent substrate kinetic assay; type: biochemical; settings: pH 4.5, substrate MR121-[…]
T2 construct: purchased R&D Systems
T2 sequence (P14091 54-396): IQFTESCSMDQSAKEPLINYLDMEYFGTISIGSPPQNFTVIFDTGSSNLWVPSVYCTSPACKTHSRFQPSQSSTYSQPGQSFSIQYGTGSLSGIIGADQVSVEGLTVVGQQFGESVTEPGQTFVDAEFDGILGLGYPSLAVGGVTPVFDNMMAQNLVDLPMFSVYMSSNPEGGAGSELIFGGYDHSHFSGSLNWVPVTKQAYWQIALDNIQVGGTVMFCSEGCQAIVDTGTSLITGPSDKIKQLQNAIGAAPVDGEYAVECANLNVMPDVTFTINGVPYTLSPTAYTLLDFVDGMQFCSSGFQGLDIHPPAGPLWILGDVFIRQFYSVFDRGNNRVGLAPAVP
Description: (§1) Cathepsin D and Cathepsin E Fluorescent Substrate Kinetic Assays
(§2) The MR121 fluorescence assays described below are based on the fact that MR121 forms a non-fluorescent ground state complex with tryptophan. In solution this formation occurs at millimolar concentrations of tryptophan. The mechanism can be used to design a generic biochemical assay for proteases. A substrate peptide is labeled at the N-terminus with tryptophan and at the C-terminus with the fluorophore MR121 (for cathepsin D the 10 amino acid peptide […]-MR121 was used; for cathepsin E, MR121-[…] was used). In absence of protease activity, the substrates remain intact and the MR121 fluorescence is reduced by the high local Trp-concentration. If the substrates are cleaved by the enzymes the MR121 fluorescence is recovered.
(§3) The fluorescent substrate cathepsin D and cathepsin E kinetic assays were performed at room temperature in 384-well microtiter plates (black with clear flat bottom, non binding surface plates from Corning) in a final volume of 51 μl. The test compounds were serially diluted in DMSO (15 concentrations, ⅓ dilution steps) and 1 μl of diluted compounds were mixed for 10 min with 40 μl of cathepsin D (from human liver, Calbiochem) diluted in assay buffer (100 mM sodium acetate, 0.05% BSA, pH 5.5; final concentration: 200 nM) or with 40 μl of recombinant human cathepsin E (R&D Systems) diluted in assay buffer (100 mM sodium acetate, 0.05% BSA, pH 4.5; final concentration: 0.01 nM). After addition of 10 μl of the cathepsin D substrate […]-MR121 diluted in cathepsin D assay buffer (final concentration: 300 nM) or […] cathepsin E substrate MR121-[…] diluted in cathepsin E assay buffer (final concentration: 300 nM), the plates were strongly shaken for 2 minutes. The enzymatic reaction was followed in a plate: vision reader (Perkin Elmer) (excitation wavelength: 630 nm; emission: 695 nm) for at least 30 minutes in a kinetic measurement detecting an increase of MR121 fluorescence during the reaction time. The slope in the linear range of the kinetic was calculated and the IC50 of the test compounds were determined using a four parameter equation for curve fitting.

[3] = target: T3, cathepsin D (from human liver) (Homo sapiens, UniProt P07339); test: Cathepsin D fluorescent substrate kinetic assay; type: biochemical; settings: pH 5.5, substrate […]-MR121
T3 construct: cathepsin D (from human liver, Calbiochem) diluted in assay buffer; purchased Calbiochem; host or cells: purified from human liver
Description: as §1, §2, §3

CYP3A4 = target: T4, CYP3A4 (Homo sapiens, UniProt P08684); test: CYP inhibition assay, CYP3A4; type: in vitro ADME; settings: human liver microsomes, midazolam 1' hydroxylase; read-out: CYP IC50 3A4
T4 construct: 0.2 mg/ml pooled human liver microsomes; from tissue; host or cells: pooled human liver microsomes
Description: (§4) Inhibition of cytochromes P450 (CYPs) 2C9, 2D6 and 3A4 was assessed using human liver microsomes and CYP-selective substrate metabolism reactions. 50 μl incubations were made up containing (finally) 0.2 mg/ml pooled human liver microsomes, 5 μM substrate (diclofenac for CYP2C9 [4′ hydroxylase], dextromethorphan for CYP2D6 [O-demethylase] or midazolam for CYP3A4 [1′ hydroxylase]), 0.25 μL DMSO containing test inhibitor and NADPH regenerating system. Test inhibitor concentrations of 50, 16.7, 5.6, 1.9, 0.6 and 0.2 μM were assessed in singlicate. Incubations were pre-warmed to 37° C. for 10 minutes before initiation by addition of NADPH regenerating system. Incubations were quenched after 5 minutes (20 minutes for dextromethorphan) by addition of 50 μl cold acetonitrile containing 20 ng/ml 4-OH-diclofenac-13C6, 20 ng/mL dextrorphan-D3 and 20 ng/mL 1-OH-midazolam-D4. Quenched incubates were stored at −20° C. for at least 1 hour before centrifugation (20,000×g, 20 minutes). Supernatants were removed and diluted 1:1 with water prior to analysis using a RapidFire sample injector system and API4000 mass spectrometer. Peak areas for substrate, metabolite and stable-labelled metabolite standard were determined using MS/MS. The peak area ratios between the metabolite generated by the enzymatic reaction and the internal standard were used in subsequent calculations. The percentage of (DMSO) control activity was calculated for each incubate and IC50 values estimated by non-linear regression. Sulfaphenazole, quinidine or ketoconazole were tested in each CYP2C9, CYP2D6 or CYP3A4 inhibition experiment, respectively, to ensure assay sensitivity and reproducibility. (Validated assays for human cytochrome P450 activities, R. L. Walsky and R. S. Obach, Drug Metabolism and Disposition 32: 647-660, 2004. and S. Fowler and H. Zhang, The AAPS Journal, Vol. 10, No. 2, 410-424, 2008.)

CYP2D6 = target: T5, CYP2D6 (Homo sapiens, UniProt P10635); test: CYP inhibition assay, CYP2D6; type: in vitro ADME; settings: human liver microsomes, dextromethorphan O-demethylase; read-out: CYP IC50 2D6
T5 construct: 0.2 mg/ml pooled human liver microsomes; from tissue; host or cells: pooled human liver microsomes
Description: as §4

CYP2C9 = target: T6, CYP2C9 (Homo sapiens, UniProt P11712); test: CYP inhibition assay, CYP2C9; type: in vitro ADME; settings: human liver microsomes, diclofenac 4' hydroxylase; read-out: CYP IC50 2C9
T6 construct: 0.2 mg/ml pooled human liver microsomes; from tissue; host or cells: pooled human liver microsomes
Description: as §4

hERG channel = target: T7, hERG channel (Homo sapiens, UniProt Q12809); test: PatchXpress hERG inhibition assay; type: cell-based; settings: @ 1 μM; CHO cells transfected with hERG, automated patch clamp
T7 construct: expressed in transfected cells; host or cells: CHO cells
Description: PatchXpress hERG Inhibition Assay
The detailed method to quantify hERG channel inhibition by the automated patch clamp system PatchXpress® 7000A (Molecular Devices, Sunnyvale, Calif.) has been described by Guo et al. (J of Pharmacol & Tox Methods, (2005) 52(1):123-35). In brief, Chinese hamster ovary (CHO) cells transfected with the human ether-a-go-go-related gene (hERG) was cultured in Ex-cell 302 media supplemented with 10% fetal bovine serum, 2 mM glutamine and 0.25 mg/ml geneticin and maintained in a CO2 incubator at 37° C. For patch clamp electrophysiology, the external buffer contained (in mM): 150 NaCl, 10 Hepes, 4 KCl, 1.2 CaCl2, 1 MgCl2, pH 7.4 adjusted with […] and the internal recording solution contained (in mM): 140 KCl, 6 EGTA, 5 Hepes, MgCl2, 5 ATP-Na2, pH 7.2 adjusted with KOH. Once the cell was loaded in the recording chamber and formed a giga ohm seal with the planar glass electrodes (Sealchip™), a whole-cell configuration was achieved by rupturing the cell membrane. The membrane potential was then clamped at −80 mV and the hERG channel activated by a 1-second depolarizing pulse delivered at 0.1 Hz, the hERG current was measured during the 500 ms-repolarizing pulse to −40 mV. After an acceptable hERG current recording was obtained, the cell was first exposed to 0.3% DMSO as the vehicle control, followed by the test article in three ascending, full-log interval concentrations and finally E-4031 at 1 μM (as the positive control) to block the hERG current completely. […] The inhibition of hERG current at each concentration was normalized to that recorded in the vehicle control, and fitted with Hill equation to calculate IC20 and/or IC50.

T4 sequence (P08684 whole entry): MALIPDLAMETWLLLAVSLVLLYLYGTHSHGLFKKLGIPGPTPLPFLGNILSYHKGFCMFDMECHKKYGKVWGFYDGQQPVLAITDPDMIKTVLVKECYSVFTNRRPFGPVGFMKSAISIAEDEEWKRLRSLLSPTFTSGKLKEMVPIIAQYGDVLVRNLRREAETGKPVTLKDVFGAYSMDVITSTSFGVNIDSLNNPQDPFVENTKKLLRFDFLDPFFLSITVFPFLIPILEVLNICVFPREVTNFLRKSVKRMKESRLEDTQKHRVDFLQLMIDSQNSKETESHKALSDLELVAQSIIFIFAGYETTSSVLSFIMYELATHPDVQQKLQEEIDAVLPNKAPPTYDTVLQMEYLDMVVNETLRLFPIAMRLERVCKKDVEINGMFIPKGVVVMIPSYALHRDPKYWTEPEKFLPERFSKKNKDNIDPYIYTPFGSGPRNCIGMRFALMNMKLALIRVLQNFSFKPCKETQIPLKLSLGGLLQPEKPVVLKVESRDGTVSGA
T6 sequence (P11712 whole entry): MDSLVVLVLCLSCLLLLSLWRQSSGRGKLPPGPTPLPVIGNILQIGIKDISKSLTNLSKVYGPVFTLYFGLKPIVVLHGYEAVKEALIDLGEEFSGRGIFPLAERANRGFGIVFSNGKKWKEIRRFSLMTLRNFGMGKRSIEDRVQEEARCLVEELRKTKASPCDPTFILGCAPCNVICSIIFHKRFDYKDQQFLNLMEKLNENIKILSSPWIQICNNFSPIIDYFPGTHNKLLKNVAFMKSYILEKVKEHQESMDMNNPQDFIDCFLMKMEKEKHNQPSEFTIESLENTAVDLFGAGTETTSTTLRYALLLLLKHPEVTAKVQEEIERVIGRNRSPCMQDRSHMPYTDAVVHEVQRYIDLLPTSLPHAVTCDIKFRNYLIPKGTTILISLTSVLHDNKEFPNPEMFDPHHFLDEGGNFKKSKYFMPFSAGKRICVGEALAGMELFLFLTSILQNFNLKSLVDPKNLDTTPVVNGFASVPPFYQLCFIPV
T5 sequence (P10635 whole entry): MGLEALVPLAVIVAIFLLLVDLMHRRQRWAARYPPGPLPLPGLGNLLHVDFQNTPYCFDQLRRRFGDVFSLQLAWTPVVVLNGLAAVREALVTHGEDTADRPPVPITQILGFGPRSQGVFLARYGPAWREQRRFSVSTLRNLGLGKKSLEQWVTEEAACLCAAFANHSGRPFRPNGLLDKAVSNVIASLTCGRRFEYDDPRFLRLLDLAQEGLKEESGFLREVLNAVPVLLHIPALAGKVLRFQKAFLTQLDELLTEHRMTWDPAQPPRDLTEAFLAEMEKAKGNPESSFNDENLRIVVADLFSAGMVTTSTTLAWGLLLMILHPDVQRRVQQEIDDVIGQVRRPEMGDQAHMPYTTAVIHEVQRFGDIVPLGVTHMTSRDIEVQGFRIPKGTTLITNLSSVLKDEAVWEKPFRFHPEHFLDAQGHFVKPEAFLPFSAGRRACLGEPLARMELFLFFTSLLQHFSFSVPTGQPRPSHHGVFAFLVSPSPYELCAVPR
T3 sequence (P07339 65-162 limits assumed): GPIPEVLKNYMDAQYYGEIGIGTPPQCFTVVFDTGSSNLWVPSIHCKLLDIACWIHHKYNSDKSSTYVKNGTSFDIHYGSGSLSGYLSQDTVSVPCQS
T3 sequence (P07339 169-412 limits assumed): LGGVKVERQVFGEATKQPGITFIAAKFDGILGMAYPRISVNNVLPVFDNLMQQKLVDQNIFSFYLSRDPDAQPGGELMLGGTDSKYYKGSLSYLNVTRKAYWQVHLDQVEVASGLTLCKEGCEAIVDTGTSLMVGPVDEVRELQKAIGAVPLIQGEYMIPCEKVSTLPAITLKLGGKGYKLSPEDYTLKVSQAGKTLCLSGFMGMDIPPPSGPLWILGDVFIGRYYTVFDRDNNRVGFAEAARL
T1 sequence (P56817 46-501): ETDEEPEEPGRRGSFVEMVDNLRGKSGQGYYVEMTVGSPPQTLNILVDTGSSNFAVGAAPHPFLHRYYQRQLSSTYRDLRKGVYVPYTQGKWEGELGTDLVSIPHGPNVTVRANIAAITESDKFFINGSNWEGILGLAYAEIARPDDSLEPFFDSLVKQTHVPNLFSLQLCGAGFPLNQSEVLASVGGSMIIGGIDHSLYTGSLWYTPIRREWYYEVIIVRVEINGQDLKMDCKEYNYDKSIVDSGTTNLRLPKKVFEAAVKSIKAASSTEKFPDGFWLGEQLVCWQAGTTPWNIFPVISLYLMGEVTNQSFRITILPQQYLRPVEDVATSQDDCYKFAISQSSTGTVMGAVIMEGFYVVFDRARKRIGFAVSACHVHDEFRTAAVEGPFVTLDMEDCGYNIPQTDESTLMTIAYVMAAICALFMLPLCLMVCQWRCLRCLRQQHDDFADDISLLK
T7 sequence (Q12809 whole entry): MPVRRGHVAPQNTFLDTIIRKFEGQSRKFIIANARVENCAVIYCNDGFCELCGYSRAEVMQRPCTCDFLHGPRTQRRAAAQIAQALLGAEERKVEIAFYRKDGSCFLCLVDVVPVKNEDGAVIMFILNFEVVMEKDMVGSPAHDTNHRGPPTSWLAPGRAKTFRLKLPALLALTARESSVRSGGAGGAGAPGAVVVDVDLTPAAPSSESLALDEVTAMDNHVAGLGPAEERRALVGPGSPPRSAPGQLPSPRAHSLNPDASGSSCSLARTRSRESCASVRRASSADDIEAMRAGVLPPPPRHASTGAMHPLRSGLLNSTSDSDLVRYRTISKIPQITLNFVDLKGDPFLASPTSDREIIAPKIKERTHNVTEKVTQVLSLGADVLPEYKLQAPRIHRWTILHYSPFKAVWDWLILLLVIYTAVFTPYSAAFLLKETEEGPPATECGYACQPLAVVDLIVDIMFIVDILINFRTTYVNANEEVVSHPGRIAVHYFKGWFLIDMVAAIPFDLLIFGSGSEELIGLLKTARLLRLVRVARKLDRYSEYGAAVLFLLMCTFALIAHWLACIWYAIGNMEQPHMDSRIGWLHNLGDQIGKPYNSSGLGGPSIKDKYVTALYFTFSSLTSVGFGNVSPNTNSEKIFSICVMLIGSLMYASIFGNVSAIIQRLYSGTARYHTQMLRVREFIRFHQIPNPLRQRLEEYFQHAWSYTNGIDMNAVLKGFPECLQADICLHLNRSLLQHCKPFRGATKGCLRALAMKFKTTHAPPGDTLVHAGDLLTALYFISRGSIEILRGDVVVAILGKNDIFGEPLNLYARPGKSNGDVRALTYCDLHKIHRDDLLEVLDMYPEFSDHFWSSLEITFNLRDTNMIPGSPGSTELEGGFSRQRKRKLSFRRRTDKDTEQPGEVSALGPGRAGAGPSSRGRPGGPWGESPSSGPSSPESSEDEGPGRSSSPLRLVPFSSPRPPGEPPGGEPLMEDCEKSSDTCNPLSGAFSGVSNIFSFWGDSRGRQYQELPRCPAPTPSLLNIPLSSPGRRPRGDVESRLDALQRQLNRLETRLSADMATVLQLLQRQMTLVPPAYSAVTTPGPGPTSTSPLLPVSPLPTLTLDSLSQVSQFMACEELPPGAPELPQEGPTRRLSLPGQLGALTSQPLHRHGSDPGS

IC50 (BACE1) [nM]	GSH human (glutathione adduct formation) [1]	IC50 [2] [µM]	IC50 [3] [µM]	IC50 (CYP3A4) [µM]	IC50 (CYP2D6) [µM]	IC50 (CYP2C9) [µM]	SMILES	in vivo effect (in vivo effect)	hERG inhibition (hERG channel)
0.4	NF	133	52	> 10	1 to 10	> 10	C[C@]1(c2cc(NC(=O)c3ccc(Cl)cn3)ccc2F)N=C(N)O[C@@H]2CC(F)(F)C[C@@H]21 [Example 1, 5-Chloro-pyridine-2-carboxylic acid [3-((4S,4aR,7aR)-2-amino-6,6-difluoro-4-methyl-4,4a,5,6,7,7a-hexahydro-cyclopenta[e][1,3]oxazin-4-yl)-4-fluoro-phenyl]-amide]	A (less than 50% of control @ 30 mg/kg p.o.)	
	NF	101	120	> 10	> 10	> 10	C[C@]1(c2cc(NC(=O)c3ccc(C#N)cn3)ccc2F)N=C(N)O[C@@H]2CC(F)(F)C[C@@H]21 [Example 2, 5-Cyano-pyridine-2-carboxylic acid [3-((4S,4aR,7aR)-2-amino-6,6-difluoro-4-methyl 4,4a,5,6,7,7a-hexahydro-cyclopenta[e][1,3]oxazin-4-yl)-4-fluoro-phenyl]-amide]	A (less than 50% of control @ 30 mg/kg p.o.)	A (less than 20% inhibition @ 1 μM)

— patent publication US8476264B2, “N-(3-(2-amino-6,6-difluoro-4,4A,5,6,7,7A-hexahydro-cyclopenta[E][1,3]oxazin-4-yl)-phenylamides as BACE1 inhibitors” (Hoffmann-La Roche Inc., priority 2011, dated 2013)
